According to patent US20130244950A1, “COMBINATION THERAPY FOR CHEMORESISTANT CANCERS” (CELGENE CORPORATION, priority 2011, published 2013):
Read-outs that look alike come from different tables or passages of the source.

How the values were obtained:
[1] = system: ccRCC cell lines A498 and KIJ265T and TNBC cell lines MDA231 and BT20; test: Drug treatments and proliferation assay (cell counting, Coulter Particle Counter); assay type: cell-based, Human
Procedure: Human renal cell carcinoma cell lines A498 (ATCC, Manassas, Va.) and KIJ265T (derived from primary tumor site stage 4 human renal cell carcinoma patient tissue established in the Copland laboratory), as well as triple negative breast cancer cell lines BT-20 (ATCC) and MDA-231 (ATCC) were maintained in phenol red free DMEM medium (Cellgro, Herndon, Va.) supplemented with 10% FBS (Hyclone, Logan, Utah) and penicillin-streptomycin (Invitrogen, Carlsbad, Calif.) at 37° C. in humidified conditions with 5% CO2.
DMSO was used for vehicle control. […] Cells were trypsinized 24 hours later and counted.

KIJ265T ccRCC cell line = test: Cell death analysis via flow cytometry (propidium iodide); assay type: cell-based, Human; conditions: 5 nM romidepsin and/or 1 μM decitabine, 72 hour treatment
Procedure: Cells were treated with the optimal combinatorial therapy and appropriate control groups were prepared. After 72 hour treatment both adhered and floating cells were collected, centrifuged at 4° C., and washed using DPBS. Cells were centrifuged and re-suspended in 1× cold binding buffer (BD Pharmingen, San Jose, Calif.) at a concentration of 1×10^6 cells per ml. Cells were stained for 10 minutes with propidium iodide (BD Pharmingen), and FACS analysis was performed using Accuri C6 flow cytometer (Accuri, Ann Arbor, Mich.). Unstained cells were used as controls for setting the cell population parameters.

[2] = cited from earlier work
BT20 cell line = test: Cell death analysis via flow cytometry (propidium iodide); assay type: cell-based, Human; conditions: 5 nM romidepsin and/or 1 μM decitabine, 72 hour treatment
[3] = system: PARP cleavage in KIJ265T and MDA-231 parent cell lines; test: PARP cleavage after recombinant human sFRP1; assay type: cell-based; conditions: single dose of 1.4 nM sFRP1
MDA231 and KIJ265T cells = test: Proliferation of cells treated with recombinant human sFRP1; assay type: cell-based; conditions: escalating doses of recombinant sFRP1 in the media, 72 hours
Procedure: For the treatment of cells with recombinant human sFRP1, MDA231 and KIJ265T cells were seeded in a 96-well culture plate at 5000 cells per well in 100 μl DMEM supplemented with PSA and 10% FBS. After overnight incubation, cells were washed in PBS and 100 μl of serum free DMEM containing the final concentration of sFRP1 was added. The cells were incubated for 6 hours Serum was re-introduced to these wells to a final concentration of 2% FBS. Plates were incubated for 72 hours before cells were trypsinized and counted.

## Nc1ncn([C@H]2C[C@H](O)[C@@H](CO)O2)c(=O)n1 [decitabine, 4-amino-1-(2-deoxy-β-D-erythro-pentofuranosyl)-1,3,5-triazin-2(1H)one]
[1]; decitabine alone, all tested doses (0.01 μM to 10 μM), 72 hours post drug exposure
  effect on cell proliferation: minimal effect on cell proliferation
KIJ265T ccRCC cell line
  cell death induced above DMSO treated controls: 6.3%
[2]; dimethylsulfoxide (DMSO)
  solubility: soluble
[2]; ethanol/water (50/50), methanol/water (50/50) and methanol
  solubility: slightly soluble
[2]; water
  solubility: sparingly soluble

## C/C=C1\NC(=O)[C@H]2CSSCC/C=C/[C@H](CC(=O)N[C@H](C(C)C)C(=O)N2)OC(=O)[C@H](C(C)C)NC1=O [romidepsin, (1S,4S,7Z,10S,16E,21R)-7-ethylidene-4,21-bis(1-methylethyl)-2-oxa-12,13-dithia-5,8,20,23-tetrazabicyclo[8.7.6]tricos-16-ene-3,6,9,19,22-pentone]
BT20 cell line
  cell death induced compared to DMSO controls: 5.8%
[1]; 5 nM romidepsin, 3 day exposure
  cell death in single treatment samples: ~50%
[1]; romidepsin alone, 2.5-100 nM dose range, 72 hours post drug exposure
  inhibition of cell proliferation: significant inhibition of cell proliferation

## Nc1ncn([C@@H]2O[C@H](CO)[C@@H](O)[C@H]2O)c(=O)n1 [azacitidine, 4-amino-1-β-D-ribofuranozyl-s-triazin-2(1H)-one]
[2]; acetone, ethanol and methyl ketone
  solubility: insoluble
[2]; dimethylsulfoxide (DMSO)
  solubility: soluble
[2]; ethanol/water (50/50), propylene glycol and polyethylene glycol
  solubility: slightly soluble
[2]; water, water-saturated octanol, 5% dextrose in water, N-methyl-2-pyrrolidone, normal saline and 5% Tween 80 in water
  solubility: sparingly soluble

B1: recombinant human sFRP1: recombinant human secreted frizzled related protein 1, negative regulator of Wnt signaling (protein, UniProt Q8N474 32-314, looked up)
Secreted frizzled-related …: SEYDYVSFQSDIGPYQSGRFYTKPPQCVDIPADLRLCHNVGYKKMVLPNLLEHETMAEVKQQASSWVPLLNKNCHAGTQVFLCSLFAPVCLDRPIYPCRWLCEAVRDSCEPVMQFFGFYWPEMLKCDKFPEGDVCIAMTPPNATEASKPQGTTVCPPCDNELKSEAIIEHLCASEFALRMKIKEVKKENGDKKIVPKKKKPLKLGPIKKKDLKKLVLYLKNGADCPCHQLDNLSHHFLIMGRKVKSQYLLTAIHKWDKKNKEFKNFMKKMKNHECPTFQSVFK
[3]
  induction of apoptosis (PARP cleavage): induction of apoptosis as seen by PARP cleavage
MDA231 and KIJ265T cells
  cell proliferation: dose-dependent decrease
